These results are taken from patent publication US5416191A, “Bradykinin antagonists” (Cortech, Inc., priority 1993, dated 1995).

Assay [1] concerns the target T1, bradykinin receptor of the B2 class (guinea-pig ileum) (Cavia porcellus, UniProt O70526).
T1 sequence (O70526 1-372): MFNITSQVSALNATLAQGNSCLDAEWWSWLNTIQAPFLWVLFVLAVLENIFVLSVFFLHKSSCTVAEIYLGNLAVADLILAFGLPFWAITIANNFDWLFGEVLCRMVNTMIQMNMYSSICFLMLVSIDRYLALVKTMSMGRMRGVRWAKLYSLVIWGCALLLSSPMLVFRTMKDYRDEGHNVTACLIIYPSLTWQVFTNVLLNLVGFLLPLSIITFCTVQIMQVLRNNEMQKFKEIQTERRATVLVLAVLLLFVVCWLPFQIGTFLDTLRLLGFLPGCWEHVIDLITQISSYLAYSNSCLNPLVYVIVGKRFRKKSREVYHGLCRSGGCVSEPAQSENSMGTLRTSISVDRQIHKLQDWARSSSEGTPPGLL
The note with it: Table B; Cys position scan, monomers and BMH dimers.

The target of assay [2] is T2, bradykinin receptor of the B2 class (rat uterus) (Rattus norvegicus, UniProt P25023).
T2 construct: concentration effect curves to bradykinin (BK) on rat uterus in vitro; from tissue; host or cells: rat uterus
T2 sequence (P25023 1-396): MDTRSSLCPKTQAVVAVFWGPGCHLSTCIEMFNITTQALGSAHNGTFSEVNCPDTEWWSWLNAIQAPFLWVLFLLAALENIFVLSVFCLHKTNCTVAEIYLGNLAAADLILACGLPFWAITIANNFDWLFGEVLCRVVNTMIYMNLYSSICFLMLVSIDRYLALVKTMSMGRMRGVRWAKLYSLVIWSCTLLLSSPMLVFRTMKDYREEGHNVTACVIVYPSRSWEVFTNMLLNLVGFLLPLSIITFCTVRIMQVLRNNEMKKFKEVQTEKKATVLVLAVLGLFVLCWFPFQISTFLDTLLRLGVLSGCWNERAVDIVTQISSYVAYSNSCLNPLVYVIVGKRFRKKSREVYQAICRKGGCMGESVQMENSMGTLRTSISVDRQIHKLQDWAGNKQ
Briefly: Rat uterus (RU) in vitro, antagonism of bradykinin. The note with it: Table C, rat uterus. In outline: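 Isolated rat uterus; bradykinin antagonism expressed as pA2, the negative log molar antagonist concentration that halves agonist potency. After the highest antagonist concentration, tissues were washed extensively and percent recovery was recorded.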

Peptide text beside a SMILES is read from it.

`CC(C)C[C@H](NC(=O)[C@H](CS)NC(=O)[C@H](CO)NC(=O)[C@H](Cc1ccccc1)NC(=O)CNC(=O)[C@@H]1C[C@@H](O)CN1C(=O)[C@@H]1CCCN1C(=O)[C@H](CCCNC(=N)N)NC(=O)[C@H](N)CCCNC(=N)N)C(=O)N[C@@H](CCCNC(=N)N)C(=O)O` [CP-0145] (HELM PEPTIDE1{[dR].R.P.[Hyp].G.F.S.C.L.R}$$$$V2.0): the “pA2 GUINEA PIG ILEUM” value in assay [1] is recorded as “Inactive”. For the same compound, the “pA2 MONOMER” value in assay [2] (P.A. = Partial Agonist) is given as “Inactive”.

On to `CC(C)C[C@H](NC(=O)[C@@H](CS)NC(=O)[C@H](CO)NC(=O)[C@H](Cc1ccccc1)NC(=O)CNC(=O)[C@@H]1C[C@@H](O)CN1C(=O)[C@@H]1CCCN1C(=O)[C@H](CCCNC(=N)N)NC(=O)[C@H](N)CCCNC(=N)N)C(=O)N[C@@H](CCCNC(=N)N)C(=O)O` [CP-0146] (HELM PEPTIDE1{[dR].R.P.[Hyp].G.F.S.[dC].L.R}$$$$V2.0), for which the “pA2 GUINEA PIG ILEUM” value in assay [1] is listed as “Inactive”. In assay [2] (P.A. = Partial Agonist), the “pA2 MONOMER” value is given as “Inactive”.

Consider `N=C(N)NCCC[C@@H](N)C(=O)N[C@@H](CCCNC(=N)N)C(=O)N1CCC[C@H]1C(=O)N1C[C@H](O)C[C@H]1C(=O)NCC(=O)N[C@@H](Cc1ccccc1)C(=O)N[C@@H](CO)C(=O)N[C@H](Cc1ccccc1)C(=O)N[C@@H](CS)C(=O)N[C@@H](CCCNC(=N)N)C(=O)O` [CP-0147] (HELM PEPTIDE1{[dR].R.P.[Hyp].G.F.S.[dF].C.R}$$$$V2.0), for which the “pA2 GUINEA PIG ILEUM” value in assay [1] is “Inactive”. Besides, the “pA2 MONOMER” value in assay [2] (P.A. = Partial Agonist) was “Inactive”.

On to `CC(C)C[C@H](NC(=O)[C@@H](Cc1ccccc1)NC(=O)[C@H](CO)NC(=O)[C@H](Cc1ccccc1)NC(=O)CNC(=O)[C@@H]1C[C@@H](O)CN1C(=O)[C@@H]1CCCN1C(=O)[C@H](CCCNC(=N)N)NC(=O)[C@H](N)CCCNC(=N)N)C(=O)N[C@@H](CS)C(=O)O` [CP-0148] (HELM PEPTIDE1{[dR].R.P.[Hyp].G.F.S.[dF].L.C}$$$$V2.0), for which the “pA2 GUINEA PIG ILEUM” value in assay [1] was “Inactive”. In assay [2], the “% REC MONOMER” value was found to be 100%. For the same compound, in assay [2] (P.A. = Partial Agonist), the “pA2 MONOMER” value is given as “Inactive”. Further, the Kb in assay [2] (P.A. = Partial Agonist, read-out: pA2 MONOMER (converted)) was 0.2 µM.

`CC(C)C[C@H](NC(=O)[C@H](CSC1CC(=O)N(CCCCCCN2C(=O)CC(SC[C@H](NC(=O)[C@H](CO)NC(=O)[C@H](Cc3ccccc3)NC(=O)CNC(=O)[C@@H]3C[C@@H](O)CN3C(=O)[C@@H]3CCCN3C(=O)[C@H](CCCNC(=N)N)NC(=O)[C@H](N)CCCNC(=N)N)C(=O)N[C@@H](CC(C)C)C(=O)N[C@@H](CCCNC(=N)N)C(=O)O)C2=O)C1=O)NC(=O)[C@H](CO)NC(=O)[C@H](Cc1ccccc1)NC(=O)CNC(=O)[C@@H]1C[C@@H](O)CN1C(=O)[C@@H]1CCCN1C(=O)[C@H](CCCNC(=N)N)NC(=O)[C@H](N)CCCNC(=N)N)C(=O)N[C@@H](CCCNC(=N)N)C(=O)O` (stereo partly shown) [CP-0157] (HELM PEPTIDE1{[dR].R.P.[Hyp].G.F.S.C.L.R}|PEPTIDE2{[dR].R.P.[Hyp].G.F.S.C.L.R}|CHEM1{[O=C1CC([*:1])C(=O)N1CCCCCCN1C(=O)CC([*:2])C1=O]}$PEPTIDE1,CHEM1,8:R3-1:R1|PEPTIDE2,CHEM1,8:R3-1:R2$$$V2.0): the “pA2 GUINEA PIG ILEUM” value in assay [1] was “Inactive”. The “pA2 DIMER” value in assay [2] was “Inactive”.

For `CC(C)C[C@H](NC(=O)[C@@H](CSC1CC(=O)N(CCCCCCN2C(=O)CC(SC[C@@H](NC(=O)[C@H](CO)NC(=O)[C@H](Cc3ccccc3)NC(=O)CNC(=O)[C@@H]3C[C@@H](O)CN3C(=O)[C@@H]3CCCN3C(=O)[C@H](CCCNC(=N)N)NC(=O)[C@H](N)CCCNC(=N)N)C(=O)N[C@@H](CC(C)C)C(=O)N[C@@H](CCCNC(=N)N)C(=O)O)C2=O)C1=O)NC(=O)[C@H](CO)NC(=O)[C@H](Cc1ccccc1)NC(=O)CNC(=O)[C@@H]1C[C@@H](O)CN1C(=O)[C@@H]1CCCN1C(=O)[C@H](CCCNC(=N)N)NC(=O)[C@H](N)CCCNC(=N)N)C(=O)N[C@@H](CCCNC(=N)N)C(=O)O` (stereo partly shown) [CP-0158] (HELM PEPTIDE1{[dR].R.P.[Hyp].G.F.S.[dC].L.R}|PEPTIDE2{[dR].R.P.[Hyp].G.F.S.[dC].L.R}|CHEM1{[O=C1CC([*:1])C(=O)N1CCCCCCN1C(=O)CC([*:2])C1=O]}$PEPTIDE1,CHEM1,8:R3-1:R1|PEPTIDE2,CHEM1,8:R3-1:R2$$$V2.0), the “pA2 GUINEA PIG ILEUM” value in assay [1] is listed as “Inactive”. In assay [2], the “pA2 DIMER” value is listed as “Inactive”.

On to `N=C(N)NCCC[C@@H](N)C(=O)N[C@@H](CCCNC(=N)N)C(=O)N1CCC[C@H]1C(=O)N1C[C@H](O)C[C@H]1C(=O)NCC(=O)N[C@@H](Cc1ccccc1)C(=O)N[C@@H](CO)C(=O)N[C@H](Cc1ccccc1)C(=O)N[C@@H](CSC1CC(=O)N(CCCCCCN2C(=O)CC(SC[C@H](NC(=O)[C@@H](Cc3ccccc3)NC(=O)[C@H](CO)NC(=O)[C@H](Cc3ccccc3)NC(=O)CNC(=O)[C@@H]3C[C@@H](O)CN3C(=O)[C@@H]3CCCN3C(=O)[C@H](CCCNC(=N)N)NC(=O)[C@H](N)CCCNC(=N)N)C(=O)N[C@@H](CCCNC(=N)N)C(=O)O)C2=O)C1=O)C(=O)N[C@@H](CCCNC(=N)N)C(=O)O` (stereo partly shown) [CP-0159] (HELM PEPTIDE1{[dR].R.P.[Hyp].G.F.S.[dF].C.R}|PEPTIDE2{[dR].R.P.[Hyp].G.F.S.[dF].C.R}|CHEM1{[O=C1CC([*:1])C(=O)N1CCCCCCN1C(=O)CC([*:2])C1=O]}$PEPTIDE1,CHEM1,9:R3-1:R1|PEPTIDE2,CHEM1,9:R3-1:R2$$$V2.0), for which, in assay [1], the “pA2 GUINEA PIG ILEUM” value is reported as “Inactive”. Further, the “pA2 DIMER” value in assay [2] is on record as “Inactive”.

Consider `CC(C)C[C@H](NC(=O)[C@@H](Cc1ccccc1)NC(=O)[C@H](CO)NC(=O)[C@H](Cc1ccccc1)NC(=O)CNC(=O)[C@@H]1C[C@@H](O)CN1C(=O)[C@@H]1CCCN1C(=O)[C@H](CCCNC(=N)N)NC(=O)[C@H](N)CCCNC(=N)N)C(=O)N[C@@H](CSC1CC(=O)N(CCCCCCN2C(=O)CC(SC[C@H](NC(=O)[C@H](CC(C)C)NC(=O)[C@@H](Cc3ccccc3)NC(=O)[C@H](CO)NC(=O)[C@H](Cc3ccccc3)NC(=O)CNC(=O)[C@@H]3C[C@@H](O)CN3C(=O)[C@@H]3CCCN3C(=O)[C@H](CCCNC(=N)N)NC(=O)[C@H](N)CCCNC(=N)N)C(=O)O)C2=O)C1=O)C(=O)O` (stereo partly shown) [CP-0160] (HELM PEPTIDE1{[dR].R.P.[Hyp].G.F.S.[dF].L.C}|PEPTIDE2{[dR].R.P.[Hyp].G.F.S.[dF].L.C}|CHEM1{[O=C1CC([*:1])C(=O)N1CCCCCCN1C(=O)CC([*:2])C1=O]}$PEPTIDE1,CHEM1,10:R3-1:R1|PEPTIDE2,CHEM1,10:R3-1:R2$$$V2.0), for which the “pA2 GUINEA PIG ILEUM” value in assay [1] is reported as “Inactive”. Besides, in assay [2], the “pA2 DIMER” value is on record as “Inactive”.

As for `CC(C)C[C@H](NC(=O)[C@@H](Cc1ccccc1)NC(=O)[C@H](CO)NC(=O)[C@H](Cc1ccccc1)NC(=O)[C@@H](CS)NC(=O)[C@@H]1C[C@@H](O)CN1C(=O)[C@@H]1CCCN1C(=O)[C@H](CCCNC(=N)N)NC(=O)[C@H](N)CCCNC(=N)N)C(=O)N[C@@H](CCCNC(=N)N)C(=O)O` [CP-0173] (HELM PEPTIDE1{[dR].R.P.[Hyp].[dC].F.S.[dF].L.R}$$$$V2.0), in assay [1], the “pA2 GUINEA PIG ILEUM” value was “Inactive”. In addition, in assay [2] (P.A. = Partial Agonist), the “pA2 MONOMER” value is “Inactive”.

As for `CC(C)C[C@H](NC(=O)[C@@H](Cc1ccccc1)NC(=O)[C@H](CO)NC(=O)[C@H](Cc1ccccc1)NC(=O)[C@@H](CSC1CC(=O)N(CCCCCCN2C(=O)CC(SC[C@@H](NC(=O)[C@@H]3C[C@@H](O)CN3C(=O)[C@@H]3CCCN3C(=O)[C@H](CCCNC(=N)N)NC(=O)[C@H](N)CCCNC(=N)N)C(=O)N[C@@H](Cc3ccccc3)C(=O)N[C@@H](CO)C(=O)N[C@H](Cc3ccccc3)C(=O)N[C@@H](CC(C)C)C(=O)N[C@@H](CCCNC(=N)N)C(=O)O)C2=O)C1=O)NC(=O)[C@@H]1C[C@@H](O)CN1C(=O)[C@@H]1CCCN1C(=O)[C@H](CCCNC(=N)N)NC(=O)[C@H](N)CCCNC(=N)N)C(=O)N[C@@H](CCCNC(=N)N)C(=O)O` (stereo partly shown) [CP-0203] (HELM PEPTIDE1{[dR].R.P.[Hyp].[dC].F.S.[dF].L.R}|PEPTIDE2{[dR].R.P.[Hyp].[dC].F.S.[dF].L.R}|CHEM1{[O=C1CC([*:1])C(=O)N1CCCCCCN1C(=O)CC([*:2])C1=O]}$PEPTIDE1,CHEM1,5:R3-1:R1|PEPTIDE2,CHEM1,5:R3-1:R2$$$V2.0), in assay [1], the “pA2 GUINEA PIG ILEUM” value was “Inactive”. Besides, the “pA2 DIMER” value in assay [2] is recorded as “Inactive”.
